Test results: PMC5770468, “Cardiac glycoside/aglycones inhibit HIV-1 gene expression by a mechanism requiring MEK1/2-ERK1/2 signaling” (Scientific Reports, 2018)

Tested on: HeLa rtTA-HIV(Gag-GFP) cells
Type: cell-based, human
Settings: 220 nM
Procedure: Using the same methods and conditions described for HeLa rtTA-HIV-ΔMls cells, HeLa rtTA-HIV(Gag-GFP) cells were seeded in 48-/12-well plates and pretreated with/without pathway inhibitor prior to treatment with drug/compounds and Dox. Equal concentrations of DMSO were present in each experiment. HIV-1 gene expression was determined by detecting Gag-GFP fluorescence in cells by plate scans using a Typhoon Imager 9400 (Amersham Biosciences) or Typhoon FLA 9400 (GE) on ImageQuant, cell lysates by SDS-PAGE captured on ChemiDoc MP, or cell lysates by p24^CA ELISA. Before quantification, cells were washed with warm PBS and either scanned live (and harvested for protein analyses) or fixed in 3.7% paraformaldehyde/formaldehyde-PBS for subsequent analyses. Data from cell scans and SDS-PAGEs were quantitated using ImageJ and Image Lab software, respectively. To determine which pathway signal was used by a CS to inhibit HIV-1 gene expression, cells treated with CS were pre-treated with a specific pathway inhibitor and monitored for recovery of Gag-GFP expression. […] In parallel, the cell viability of each pathway inhibitor and CS treatment combination were monitored by cell density staining of fixed cells with 2% methylene blue (BioBasic, #MB0342) in 50% ethanol and read at OD664 on a TECAN Infinite® 200 PRO or Biotek Cytation5. […]

## COc1ccc(C[C@H]2NC[C@H](O)[C@H]2OC(C)=O)cc1 [anisomycin, Anisomycin]
  effect on cell density: little to no effect
